Reference: ChEMBL document CHEMBL1201862, “PubChem BioAssay data set” (2004)
Calls of active or inactive are those of the source.

Legend:
[1] = target: FAD-linked sulfhydryl oxidase ALR (Homo sapiens, UniProt P55789); experiment: ALR-catalysed DTT oxidation blockers – biochemical, H2O2 detection, luminescence, cherry-pick, dose response (AID 493248)
Large T antigen = Large T antigen (Simian virus 40, UniProt P03070); type: functional, Betapolyomavirus macacae;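 further: Confirmatory-stage PubChem screen for compounds that inhibit SV40 T antigen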
Chain of Large T antigen (P03070 whole entry): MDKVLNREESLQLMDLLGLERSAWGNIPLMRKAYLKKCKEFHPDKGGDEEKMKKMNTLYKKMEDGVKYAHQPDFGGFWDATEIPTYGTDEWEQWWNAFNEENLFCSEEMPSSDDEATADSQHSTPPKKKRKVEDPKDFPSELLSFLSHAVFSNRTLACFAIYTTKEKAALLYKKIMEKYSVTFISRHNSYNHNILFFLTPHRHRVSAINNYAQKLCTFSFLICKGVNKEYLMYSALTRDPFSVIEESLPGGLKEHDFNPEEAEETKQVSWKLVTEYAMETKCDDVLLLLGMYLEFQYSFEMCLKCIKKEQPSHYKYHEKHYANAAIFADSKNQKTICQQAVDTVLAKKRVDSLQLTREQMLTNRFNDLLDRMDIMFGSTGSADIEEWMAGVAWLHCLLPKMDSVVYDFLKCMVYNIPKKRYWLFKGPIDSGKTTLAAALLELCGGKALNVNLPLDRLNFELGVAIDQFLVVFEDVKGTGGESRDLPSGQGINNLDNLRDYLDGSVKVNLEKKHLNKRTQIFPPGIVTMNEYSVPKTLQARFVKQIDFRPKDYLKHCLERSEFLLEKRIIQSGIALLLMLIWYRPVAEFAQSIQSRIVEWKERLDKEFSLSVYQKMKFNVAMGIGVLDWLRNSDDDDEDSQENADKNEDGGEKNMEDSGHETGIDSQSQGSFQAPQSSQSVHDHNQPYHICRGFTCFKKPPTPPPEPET

[2] = target: Glucose-6-phosphate 1-dehydrogenase (Homo sapiens, UniProt P11413); experiment: inhibition of Homo sapiens G6PD, dose series – biochemical, fluorescence, selectivity assay for P. falciparum G6PD inhibitor project, dose response (AID 504792); type: functional
Chain of Glucose-6-phosphate 1-dehydrogenase (P11413 whole entry): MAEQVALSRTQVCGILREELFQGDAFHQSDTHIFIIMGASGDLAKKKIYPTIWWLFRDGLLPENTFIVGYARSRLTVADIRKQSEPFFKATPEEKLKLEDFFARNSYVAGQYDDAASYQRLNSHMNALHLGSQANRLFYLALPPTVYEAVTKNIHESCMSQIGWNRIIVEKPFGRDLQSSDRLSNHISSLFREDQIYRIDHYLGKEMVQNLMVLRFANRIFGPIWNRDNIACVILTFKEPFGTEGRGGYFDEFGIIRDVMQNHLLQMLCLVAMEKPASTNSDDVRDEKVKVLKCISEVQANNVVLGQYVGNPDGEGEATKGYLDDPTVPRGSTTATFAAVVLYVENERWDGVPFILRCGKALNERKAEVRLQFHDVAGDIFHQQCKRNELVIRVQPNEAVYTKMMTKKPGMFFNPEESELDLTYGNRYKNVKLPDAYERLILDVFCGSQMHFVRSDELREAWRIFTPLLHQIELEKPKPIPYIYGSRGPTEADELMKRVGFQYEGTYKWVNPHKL

Cytochrome P450 2C9 = Cytochrome P450 2C9 (Homo sapiens, UniProt P11712)
Chain of Cytochrome P450 2C9 (P11712 whole entry): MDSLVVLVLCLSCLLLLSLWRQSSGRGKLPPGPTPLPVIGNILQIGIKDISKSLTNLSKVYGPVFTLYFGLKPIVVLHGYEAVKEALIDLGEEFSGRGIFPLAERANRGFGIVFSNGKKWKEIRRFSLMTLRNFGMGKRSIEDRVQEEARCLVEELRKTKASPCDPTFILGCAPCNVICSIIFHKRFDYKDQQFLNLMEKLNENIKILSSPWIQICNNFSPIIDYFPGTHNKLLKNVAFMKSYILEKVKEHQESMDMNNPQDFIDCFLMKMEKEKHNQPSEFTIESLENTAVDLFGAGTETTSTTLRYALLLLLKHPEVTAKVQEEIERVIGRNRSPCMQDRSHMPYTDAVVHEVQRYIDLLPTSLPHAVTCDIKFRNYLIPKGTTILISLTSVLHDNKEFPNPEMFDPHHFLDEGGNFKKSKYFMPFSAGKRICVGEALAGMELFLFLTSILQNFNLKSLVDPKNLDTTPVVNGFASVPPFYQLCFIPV

Leucine aminopeptidase = target: T1, Leucine aminopeptidase (Plasmodium falciparum 3D7, UniProt Q8IL11); experiment: P. falciparum M17LAP inhibitors, primary screen, biochemical, fluorogenic H-Leu-NHMec substrate, 1536-well (AID 1619); type: functional
T1 sequence (Q8IL11 whole entry): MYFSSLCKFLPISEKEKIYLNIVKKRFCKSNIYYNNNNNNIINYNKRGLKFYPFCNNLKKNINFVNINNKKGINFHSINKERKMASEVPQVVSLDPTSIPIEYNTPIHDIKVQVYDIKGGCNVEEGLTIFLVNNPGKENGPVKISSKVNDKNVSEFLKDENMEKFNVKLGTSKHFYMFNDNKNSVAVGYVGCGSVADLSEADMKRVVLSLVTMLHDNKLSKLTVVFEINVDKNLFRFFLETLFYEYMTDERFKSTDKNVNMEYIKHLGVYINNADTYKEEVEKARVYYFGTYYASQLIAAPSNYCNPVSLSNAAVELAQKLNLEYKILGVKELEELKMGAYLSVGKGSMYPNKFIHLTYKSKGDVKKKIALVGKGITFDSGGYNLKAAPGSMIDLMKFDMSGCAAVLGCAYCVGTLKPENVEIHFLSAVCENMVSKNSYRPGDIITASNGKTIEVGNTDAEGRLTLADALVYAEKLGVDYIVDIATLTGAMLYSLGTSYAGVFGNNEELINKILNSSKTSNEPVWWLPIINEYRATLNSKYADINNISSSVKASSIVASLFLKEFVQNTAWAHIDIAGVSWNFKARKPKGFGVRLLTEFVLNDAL

Fatty acid synthase [3] = target: T2, Fatty acid synthase (Homo sapiens, UniProt P49327); experiment: inhibition of human FAS-TE enzyme activity – biochemical, endpoint fluorescence intensity, uHTS hits, dose response (AID 624327); type: functional;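 further: fluorescence from hydrolysis of an O-methyl fluorescein acyl ester substrate by the enzyme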
T2 sequence (P49327 whole entry): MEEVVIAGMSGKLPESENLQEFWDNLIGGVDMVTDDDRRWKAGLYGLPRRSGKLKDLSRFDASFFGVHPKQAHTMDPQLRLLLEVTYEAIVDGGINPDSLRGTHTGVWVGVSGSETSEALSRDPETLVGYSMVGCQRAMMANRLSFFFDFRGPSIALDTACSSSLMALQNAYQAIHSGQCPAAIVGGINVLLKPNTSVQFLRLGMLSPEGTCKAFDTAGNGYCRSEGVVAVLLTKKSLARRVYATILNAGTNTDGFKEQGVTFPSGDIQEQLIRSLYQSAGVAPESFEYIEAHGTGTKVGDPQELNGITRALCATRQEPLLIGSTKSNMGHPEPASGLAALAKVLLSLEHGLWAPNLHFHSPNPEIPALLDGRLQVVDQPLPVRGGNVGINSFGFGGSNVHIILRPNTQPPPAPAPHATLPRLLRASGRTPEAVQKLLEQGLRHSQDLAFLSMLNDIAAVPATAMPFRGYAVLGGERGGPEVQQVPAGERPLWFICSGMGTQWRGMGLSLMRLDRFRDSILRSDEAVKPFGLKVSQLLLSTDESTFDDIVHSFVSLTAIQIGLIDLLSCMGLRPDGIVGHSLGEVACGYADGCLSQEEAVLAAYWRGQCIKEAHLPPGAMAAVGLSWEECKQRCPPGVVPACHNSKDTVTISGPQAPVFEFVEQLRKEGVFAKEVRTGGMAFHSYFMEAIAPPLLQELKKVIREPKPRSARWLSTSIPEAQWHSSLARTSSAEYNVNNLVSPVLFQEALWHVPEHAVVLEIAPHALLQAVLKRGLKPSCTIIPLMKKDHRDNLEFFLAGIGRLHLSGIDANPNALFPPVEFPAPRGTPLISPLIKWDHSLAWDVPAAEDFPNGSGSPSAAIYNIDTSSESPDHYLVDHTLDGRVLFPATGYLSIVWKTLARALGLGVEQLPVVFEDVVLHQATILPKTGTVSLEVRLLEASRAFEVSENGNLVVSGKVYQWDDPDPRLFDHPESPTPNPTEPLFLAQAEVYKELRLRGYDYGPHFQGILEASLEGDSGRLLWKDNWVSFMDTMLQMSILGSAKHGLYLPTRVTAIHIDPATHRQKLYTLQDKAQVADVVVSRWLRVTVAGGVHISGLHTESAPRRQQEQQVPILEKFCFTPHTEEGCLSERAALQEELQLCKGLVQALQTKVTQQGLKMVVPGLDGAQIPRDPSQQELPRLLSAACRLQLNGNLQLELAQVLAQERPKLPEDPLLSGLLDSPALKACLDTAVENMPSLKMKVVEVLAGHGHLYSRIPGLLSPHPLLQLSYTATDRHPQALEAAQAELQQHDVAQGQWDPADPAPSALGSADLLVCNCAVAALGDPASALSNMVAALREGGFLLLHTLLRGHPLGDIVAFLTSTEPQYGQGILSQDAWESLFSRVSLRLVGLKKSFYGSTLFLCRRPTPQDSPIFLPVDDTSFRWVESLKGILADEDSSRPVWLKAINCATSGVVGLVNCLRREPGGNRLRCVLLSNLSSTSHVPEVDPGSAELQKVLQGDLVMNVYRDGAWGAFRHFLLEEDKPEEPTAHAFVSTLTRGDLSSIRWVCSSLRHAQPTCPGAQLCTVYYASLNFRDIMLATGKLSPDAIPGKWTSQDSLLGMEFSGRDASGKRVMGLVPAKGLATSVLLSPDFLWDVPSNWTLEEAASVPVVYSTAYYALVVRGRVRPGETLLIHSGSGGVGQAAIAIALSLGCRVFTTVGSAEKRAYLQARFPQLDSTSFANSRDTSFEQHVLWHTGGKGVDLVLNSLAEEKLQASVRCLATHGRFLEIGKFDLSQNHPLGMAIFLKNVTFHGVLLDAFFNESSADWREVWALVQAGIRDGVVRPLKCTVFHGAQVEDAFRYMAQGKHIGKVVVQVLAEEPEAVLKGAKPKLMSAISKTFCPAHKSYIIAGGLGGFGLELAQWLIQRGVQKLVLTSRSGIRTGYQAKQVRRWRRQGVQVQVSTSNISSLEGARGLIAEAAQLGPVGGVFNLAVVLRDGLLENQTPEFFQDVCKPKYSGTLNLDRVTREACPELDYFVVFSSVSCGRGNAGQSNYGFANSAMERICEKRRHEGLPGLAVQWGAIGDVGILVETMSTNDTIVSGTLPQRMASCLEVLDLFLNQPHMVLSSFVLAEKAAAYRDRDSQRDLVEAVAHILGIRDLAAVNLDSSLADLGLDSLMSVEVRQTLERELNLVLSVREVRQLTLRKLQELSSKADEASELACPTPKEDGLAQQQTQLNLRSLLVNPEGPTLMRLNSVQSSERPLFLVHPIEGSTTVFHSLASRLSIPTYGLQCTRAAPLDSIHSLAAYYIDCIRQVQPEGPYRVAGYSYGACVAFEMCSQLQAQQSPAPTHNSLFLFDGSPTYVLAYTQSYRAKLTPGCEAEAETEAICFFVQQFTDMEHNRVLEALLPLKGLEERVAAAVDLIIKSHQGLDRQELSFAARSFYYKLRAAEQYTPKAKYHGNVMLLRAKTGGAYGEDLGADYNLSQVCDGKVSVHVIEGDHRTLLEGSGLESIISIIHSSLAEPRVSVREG

Fatty acid synthase [4] = target: T2, Fatty acid synthase; experiment: inhibition of human FAS-TE enzyme activity – biochemical, kinetic fluorescence intensity, dose response (AID 624326); type: functional;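 further: rate of fluorescence rise from hydrolysis of a fluorogenic O-methyl fluorescein ester substrate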
Cytochrome P450 2D6 = Cytochrome P450 2D6 (Homo sapiens, UniProt P10635);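 further: CYP2D6 member of a cytochrome P450 panel assay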
Chain of Cytochrome P450 2D6 (P10635 whole entry): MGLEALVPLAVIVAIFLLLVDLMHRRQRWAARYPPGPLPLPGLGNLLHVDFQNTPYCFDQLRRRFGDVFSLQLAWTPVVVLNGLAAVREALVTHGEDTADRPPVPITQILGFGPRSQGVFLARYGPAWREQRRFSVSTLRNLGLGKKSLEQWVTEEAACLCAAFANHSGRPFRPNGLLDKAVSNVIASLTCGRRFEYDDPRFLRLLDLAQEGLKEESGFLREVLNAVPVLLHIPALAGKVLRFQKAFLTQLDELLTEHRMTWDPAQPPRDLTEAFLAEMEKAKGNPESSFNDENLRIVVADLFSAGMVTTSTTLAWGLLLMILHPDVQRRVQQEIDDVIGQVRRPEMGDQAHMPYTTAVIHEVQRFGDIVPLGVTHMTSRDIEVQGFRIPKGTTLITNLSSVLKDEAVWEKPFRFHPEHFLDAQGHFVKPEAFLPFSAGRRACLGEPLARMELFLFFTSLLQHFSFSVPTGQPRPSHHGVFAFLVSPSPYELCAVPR

Vero = experiment: cells; type: functional; settings: Chlorocebus sabaeus
[5] = NIH-3T3 fibroblast cytotoxicity, dose response, cytotoxicity control, cell-based, fluorescence, Alamar Blue, secondary assay (AID 2327); type: functional;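 further: NIH-3T3 mouse fibroblasts cultured with fluconazole at 8 µg/mL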
[6] = fluconazole-exposed Candida albicans growth modulators – fluorescence, retest, confirmation (AID 2467); type: functional, cell-based

Chain of FAD-linked sulfhydryl oxidase ALR (P55789 whole entry): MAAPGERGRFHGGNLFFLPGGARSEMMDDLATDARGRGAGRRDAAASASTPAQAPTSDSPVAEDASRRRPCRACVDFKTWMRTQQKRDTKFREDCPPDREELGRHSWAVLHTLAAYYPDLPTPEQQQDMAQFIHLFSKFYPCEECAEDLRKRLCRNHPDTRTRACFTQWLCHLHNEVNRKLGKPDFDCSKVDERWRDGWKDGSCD

Which AC50 [1] does the source give for `Cn1c(=O)oc2cc(S(=O)(=O)Nc3ccc(O)cc3)ccc21` here?
The AC50 was 1.49 µM (active).

What about the IC50 (Large T antigen) of the same compound?
Its IC50 is 4.64 µM (active).

Which IC50 [2] does the source give for `CC(C)Sc1nnc(NC(=O)c2ccc3c(c2)OCO3)s1` here?
Its IC50 is 38.9 µM (inactive).

Which AC50 (Cytochrome P450 2C9) does the source give for `COc1ccc(/C=C/C(=O)Nc2nc(C)cc(C)n2)cc1OC` here?
Its AC50 is “inconclusive”.

For `COc1ccc(CCNC(=O)c2ccc3c(SCC(=O)O)c4c(nc3c2)CCCC4)cc1OC`, which IC50 (Leucine aminopeptidase) is on record?
The IC50 was 23.3 µM (active).

For `O=C(COc1cccc2ccccc12)NNC(=O)c1cccs1`, which AC50 (Cytochrome P450 2C9) is on record?
Its AC50 is “inconclusive”.

Which IC50 (Large T antigen) does the source give for `COc1cc(/C=C2\C(=O)NN(c3ccccc3)C2=O)ccc1OCC(N)=O` here?
The IC50 was > 100 µM (active).

What does the source list for `O=c1oc(-c2ccccc2Br)nc2ccccc12`?
IC50 (Fatty acid synthase [3]): 16.1 µM (active); IC50 (Fatty acid synthase [4]): 13 µM (active)

For `COc1ccc(CNc2cc(-c3cccc(NS(C)(=O)=O)c3)ncn2)c(OC)c1`, which AC50 (Cytochrome P450 2D6) is on record?
The AC50 was 39.8 µM (inconclusive).

And the AC50 (Cytochrome P450 2C9)?
The AC50 was “inconclusive”.

For `C[C@@]12C(=O)Nc3cc(F)c(F)cc3C(=O)N1[C@H]1c3ccccc3OC[C@@H]1[C@@H]2c1ccccc1`, which IC50 (Fatty acid synthase [3]) is on record?
Its IC50 is 16.9 µM (active).

And the IC50 (Fatty acid synthase [4])?
Its IC50 is 8.59 µM (active).

For `O=[N+]([O-])c1cc(CS(=O)(=O)Oc2ccc(Cl)cc2)c(O)c([N+](=O)[O-])c1`, which IC50 (Fatty acid synthase [3]) is on record?
Its IC50 is 16.1 µM (active).

What about the IC50 (Fatty acid synthase [4]) of the same compound?
The IC50 was 41.7 µM (inactive).

For `CCOC(=O)c1c(NC(=O)COC(=O)c2ccc(S(=O)(=O)C(F)F)cc2)sc(C(=O)N(C)C)c1C`, which CC50 (Vero) is on record?
Its CC50 is > 25 µM (active).

Which results are given for `CC(=O)c1cccc(-c2ccnc3c2CC(C(=O)Nc2ccc(F)c(Cl)c2)O3)c1` (centres undefined)?
IC50 (Fatty acid synthase [3]): 7.72 µM (active); IC50 (Fatty acid synthase [4]): 7.91 µM (active)

With `OCCNc1nc(O)nc(O)c1/N=C/c1ccccc1` as the compound, how does the IC50 [2] read?
Its IC50 is 14.2 µM (active).

Which IC50 (Large T antigen) does the source give for `Cc1nn(-c2ccccc2)c(S)c1/C=N/c1ccc([N+](=O)[O-])cc1` here?
Its IC50 is 25.7 µM (active).

For `O=C(Cc1ccccc1)N/N=C/c1ccccc1Cl`, which EC50 [5] is on record?
Its EC50 is > 150 µM (inconclusive).

And the EC50 [6]?
The EC50 was > 38 µM (not active).

Which IC50 (Large T antigen) does the source give for `COc1cc(C(=O)N/N=C(\C)Cn2nc([N+](=O)[O-])cc2C)ccc1O` here?
Its IC50 is 29.3 µM (active).

With `Cc1cc(=O)oc2cc(O)ccc12` [HYMECROMONE] as the compound, how does the AC50 (Cytochrome P450 2C9) read?
Its AC50 is “inconclusive”.
